Source: US7879876B2, “Sulfonamide derivatives and use thereof for the modulation of metalloproteinases” (Merck Serono SA, priority 2005, dated 2011)

Assays:
Assay type in all cases: biochemical
human ADAM17 (TACE) = human ADAM17 (TACE) (Homo sapiens, UniProt P78536); assay: TACE enzyme inhibition assay
Protocol: Compounds of the invention were tested to assess their activities as inhibitors of MMP-1, MMP-2, MMP-9, MMP-14, MMP-12 and TACE. MMP-9 Assay Protocol
Compounds of the invention can be tested for inhibitory activity against human ADAM17 in an assay using human Mca-(endo-1a-Dap(Dnp)-TNF-alpha(−5 to +6)amide as substrate (FEBS Letters, 2000, 275-279).
Stock solutions are prepared as followed: • Assay Buffer: 20 mM Hepes pH 7.5 (Fluka) containing 0.05% Brij 35 (Fluka) • Substrate: 6.1 mM human Mca-(endo-1a-Dap(Dnp)-TNF-alpha(−5 to +6)amide (Bachem) stock solution in 100% DMSO (stored at −20° C.); diluted to 5 μM in assay buffer. • Enzyme: Recombinant human ADAM17, appropriately diluted in assay buffer (1.5 μg/ml).
Test Compounds are prepared initially as 10 mM compound solution in 100% DMSO, diluted to 1 mM in 100% DMSO, then serially diluted 3-fold in 100% DMSO across a 96-well microtitre plate. Assay concentration range is typically between 100 μM to 0.01 nM. The assay is performed in a total volume of 100 μL per well in 96-well microtitre plates. Appropriate concentrations of test compounds dissolved in 10 μL of DMSO are added to the wells, followed by substrate solution (50 μL, 5 μM prepared by dilution of DMSO stock in assay buffer) and enzyme solution (40 μL). For each as say ten concentrations of test compound are examined in […]. Control wells lack either enzyme or test compound. The reactions are incubated at room temperature for 1.5 hours. The fluorescence at 405 nm is measured immediately with a fluorometer using 355 nm excitation, without stopping the reaction.
The effect of the test compound is determined from the dose response curve generated by the 10 duplicate concentrations of inhibitor. The IC50 (the concentration of compound required to give a 50% decrease in enzyme activity) is obtained by fitting data to the equation, Y=a+((b−a)/(1+(c/X)^d)). (Y=inhibition achieved for a particular dose; X=the dose in nM; a=minimum y or zero % inhibition; b=maximum y or 100% inhibition; c=is the IC50; d=is the slope). The result is rounded to one significant figure.

gelatinase A (MMP-2) = target: T1, gelatinase A (MMP-2) (Homo sapiens, UniProt P08253); assay: MMP-2 enzyme inhibition assay (coumarin-labelled peptide substrate); conditions: read-out: IC50 MMP2
T1 sequence (P08253 110-660): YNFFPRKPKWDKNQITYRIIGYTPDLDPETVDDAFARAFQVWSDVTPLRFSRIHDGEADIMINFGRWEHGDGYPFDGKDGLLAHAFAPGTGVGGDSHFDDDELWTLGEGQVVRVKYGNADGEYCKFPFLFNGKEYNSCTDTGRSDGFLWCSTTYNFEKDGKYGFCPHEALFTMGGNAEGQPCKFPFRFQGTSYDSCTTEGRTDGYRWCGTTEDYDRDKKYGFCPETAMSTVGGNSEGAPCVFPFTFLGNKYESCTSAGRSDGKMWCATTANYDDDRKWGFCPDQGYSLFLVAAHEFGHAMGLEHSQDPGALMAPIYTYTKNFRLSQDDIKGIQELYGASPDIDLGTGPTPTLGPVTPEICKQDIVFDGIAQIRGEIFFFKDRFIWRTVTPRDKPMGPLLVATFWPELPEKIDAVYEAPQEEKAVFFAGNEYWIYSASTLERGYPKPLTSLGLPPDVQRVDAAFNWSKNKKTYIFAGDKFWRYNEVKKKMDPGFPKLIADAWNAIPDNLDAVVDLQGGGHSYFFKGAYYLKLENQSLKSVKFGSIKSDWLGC
Summary of the method: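 Recombinant human MMP-2, APMA-activated if necessary, run as for the MMP-9 protocol: McaPLGLDpaAR substrate (8 μM working dilution) in 100 mM Tris-HCl pH 7.6, 100 mM NaCl, 10 mM CaCl2, 0.05% Brij 35; ten 3-fold concentrations (100 μM–5.1 nM) in duplicate, 2 h at 37° C. Fluorescence ex 320/em 405 nm, unstopped; IC50 from four-parameter fit.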

[1] = target: 92 kDa gelatinase (MMP-9) (Homo sapiens, UniProt P14780); assay: MMP-9 enzyme inhibition assay (coumarin-labeled peptide substrate); conditions: read-out: percentage inhibition MMP9
Summary of the method: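 Recombinant human MMP-9 (APMA-activated if needed) was assayed in 100 mM Tris-HCl pH 7.6, 100 mM NaCl, 10 mM CaCl2, 0.05% Brij 35, with McaPLGLDpaAR substrate at 37° C. for 2 h. Fluorescence was read at ex 320/em 405 nm over ten 3-fold compound doses (100 μM–5.1 nM) in duplicate. IC50 came from a four-parameter fit.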

Sequence of human ADAM17 (TACE) (P78536 215-824): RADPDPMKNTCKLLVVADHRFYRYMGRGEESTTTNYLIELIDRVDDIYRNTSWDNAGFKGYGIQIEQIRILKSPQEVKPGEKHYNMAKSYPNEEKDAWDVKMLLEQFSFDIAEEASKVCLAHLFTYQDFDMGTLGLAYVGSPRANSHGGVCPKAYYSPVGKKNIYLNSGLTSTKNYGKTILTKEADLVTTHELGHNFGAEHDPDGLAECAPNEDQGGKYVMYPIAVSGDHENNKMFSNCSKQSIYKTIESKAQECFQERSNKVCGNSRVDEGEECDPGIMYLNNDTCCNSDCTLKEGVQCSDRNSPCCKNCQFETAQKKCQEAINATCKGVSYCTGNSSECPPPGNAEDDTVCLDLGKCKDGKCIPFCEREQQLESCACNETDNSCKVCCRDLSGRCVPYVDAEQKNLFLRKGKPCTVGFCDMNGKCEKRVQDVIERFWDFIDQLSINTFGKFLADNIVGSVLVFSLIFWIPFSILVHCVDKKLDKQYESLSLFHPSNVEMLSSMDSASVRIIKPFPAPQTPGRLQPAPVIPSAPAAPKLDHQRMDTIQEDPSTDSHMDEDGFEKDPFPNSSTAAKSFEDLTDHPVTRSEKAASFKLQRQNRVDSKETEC
Sequence of 92 kDa gelatinase (MMP-9) (P14780 107-707 limits assumed): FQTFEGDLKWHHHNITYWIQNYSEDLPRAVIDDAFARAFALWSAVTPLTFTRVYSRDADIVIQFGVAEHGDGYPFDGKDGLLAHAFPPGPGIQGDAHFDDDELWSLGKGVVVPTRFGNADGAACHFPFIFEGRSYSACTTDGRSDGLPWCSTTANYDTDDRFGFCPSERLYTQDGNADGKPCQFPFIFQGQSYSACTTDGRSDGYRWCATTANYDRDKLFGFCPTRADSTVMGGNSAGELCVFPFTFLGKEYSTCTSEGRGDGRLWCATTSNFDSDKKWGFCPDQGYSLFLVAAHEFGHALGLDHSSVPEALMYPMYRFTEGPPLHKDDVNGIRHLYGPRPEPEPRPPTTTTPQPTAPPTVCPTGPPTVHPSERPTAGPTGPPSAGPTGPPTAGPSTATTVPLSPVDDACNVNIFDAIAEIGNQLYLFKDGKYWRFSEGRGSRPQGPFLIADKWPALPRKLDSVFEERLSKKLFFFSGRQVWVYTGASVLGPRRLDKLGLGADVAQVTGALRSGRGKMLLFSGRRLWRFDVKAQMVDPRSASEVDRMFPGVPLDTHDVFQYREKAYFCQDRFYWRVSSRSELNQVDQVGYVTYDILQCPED

Row | SMILES | IC50 (human ADAM17 (TACE)) [µM] | IC50 (gelatinase A (MMP-2)) [µM] | inhibition at 0.1 µM [1] [%] | inhibition at 5 µM [1] [%]
1 | O=CN(O)C(CS(=O)(=O)N1CCc2cc(C(F)(F)F)ccc2C1)[C@H]1CCCO1 (stereo partly drawn) [Example 47, N-hydroxy-N-(1-[(2R)-tetrahydrofuran-2-yl]-2-{[6-(tri-fluoromethyl)-3,4-dihydroisoquinolin-2(1H)-yl]sulfonyl}ethyl)formamide] | 0.933 | 0.033 |  | 40
2 | O=CN(O)C(CCO)CS(=O)(=O)N1CCc2ccc(Cl)cc2C1 (centres unmarked) [Example 48, N-(1-{[(7-chloro-3,4-dihydroisoquinolin-2(1H)-yl)sulfonyl]-methyl}-3-hydroxypropyl)-N-hydroxyformamide] | 0.269 | 0.077 |  | 8
3 | O=CN(O)C(CO)CS(=O)(=O)N1CCc2cc(Cl)c(Cl)cc2C1 (centres unmarked) [Example 49, N-[2-[(6,7-dichloro-3,4-dihydroisoquinolin-2(1H)-yl)-sulfonyl]-1-(hydroxymethyl)ethyl]-N-hydroxyformamide] | 0.239 | 0.011 |  | 43
4 | O=CN(O)C(CS(=O)(=O)N1CCc2ccc(F)cc2C1)c1ccoc1 (centres unmarked) [Example 52, N-[2-[(7-fluoro-3,4-dihydroisoquinolin-2(1H)-yl)sulfonyl]-1-(3-furyl)ethyl]-N-hydroxyformamide] | 0.092 | 0.298 |  | 10
5 | O=CN(O)C(CS(=O)(=O)N1CCc2ccc(F)cc2C1)C1CCN(Cc2ccccc2)CC1 (centres unmarked) [Example 53, N-{1-(1-benzylpiperidin-4-yl)-2-[(7-fluoro-3,4-dihydro-isoquinolin-2(1H)-yl)sulfonyl]ethyl}-N-hydroxyformamide] | 0.245 | 0.298 |  | 5
6 | CC(C)CC(CS(=O)(=O)N1CCc2ccc(Br)cc2C1)N(O)C=O (centres unmarked) [Example 55, N-(1-{[(7-bromo-3,4-dihydroisoquinolin-2(1H)-yl)-sulfonyl]methyl}-3-methylbutyl)-N-hydroxyformamide] | 0.157 | 0.024 |  | 39
7 | CC(C)(C)c1ccc2c(c1)CN(S(=O)(=O)CC(COCc1ccccc1)N(O)C=O)CC2 (centres unmarked) [Example 57, N-(2-(benzyloxy)-1-{[(7-tert-butyl-3,4-dihydroisoquinolin-2(1H)-yl)sulfonyl]methyl}ethyl)-N-hydroxyformamide] | > 5 | > 5 |  | 0
8 | O=CN(O)C(COCc1ccccc1)CS(=O)(=O)N1CCc2ccc(Cl)cc2C1 (centres unmarked) [Example 58, N-(2-(benzyloxy)-1-{[(7-chloro-3,4-dihydroisoquinolin-2(1H)-yl)sulfonyl]methyl}ethyl)-N-hydroxyformamide] | 0.056 | 0.02 |  | 41
9 | O=CN(O)C(COc1ccccc1)CS(=O)(=O)N1CCc2ccc(Cl)cc2C1 (centres unmarked) [Example 61, N-[2-[(7-chloro-3,4-dihydroisoquinolin-2(1H)-yl)sulfonyl]-1-(phenoxymethyl)ethyl]-N-hydroxyformamide] | 0.089 | 0.038 |  | 12
10 | O=CN(O)C1(CS(=O)(=O)N2CCc3ccc(Cl)cc3C2)CCCC1 [Example 62, N-(1-{[(7-chloro-3,4-dihydroisoquinolin-2(1H)-yl)-sulfonyl]methyl}cyclopentyl)-N-hydroxyformamide] | 0.882 | 0.293 |  | 1
11 | O=CN(O)C(CS(=O)(=O)N1CCc2ccc(Br)cc2C1)C1CCCC1 (centres unmarked) [Example 64, N-{2-[(7-bromo-3,4-dihydroisoquinolin-2(1H)-yl)sulfonyl]-1-cyclopentylethyl}-N-hydroxyformamide] | 0.091 | 0.042 |  | 32

Second part, the compound after the results:

Row | IC50 (human ADAM17 (TACE)) [µM] | IC50 (gelatinase A (MMP-2)) [µM] | inhibition at 0.1 µM [1] [%] | inhibition at 5 µM [1] [%] | SMILES
12 | > 5 | 0.021 | 1 | 68 | CC(C)(C)CC(CS(=O)(=O)N1CCc2cc(C(F)(F)F)ccc2C1)N(O)C=O (centres unmarked) [Example 43, N-[3,3-dimethyl-1-({[6-(trifluoromethyl)-3,4-dihydro-isoquinolin-2(1H)-yl]sulfonyl}methyl)butyl]-N-hydroxyformamide]
13 | 0.813 | 0.025 |  | 47 | CC(C)c1ccc2c(c1)CCN(S(=O)(=O)C[C@H]([C@H]1CCCO1)N(O)C=O)C2 [Example 45, N-hydroxy-N-{(1S)-2-[(6-isopropyl-3,4-dihydroisoquinolin-2(1H)-yl)sulfonyl]-1-[(2R)-tetrahydrofuran-2-yl]ethyl}formamide]
14 | 0.397 | 0.09 | 4 | 72 | CC(C)C(CS(=O)(=O)N1CCc2ccc(-c3ccc(F)cc3)cc2C1)N(O)C=O (centres unmarked) [Example 50, N-[1-({[7-(4-fluorophenyl)-3,4-dihydroisoquinolin-2(1H)-yl]sulfonyl}methyl)-2-methylpropyl]-N-hydroxyformamide]
15 | > 5 | 0.19 |  | 2 | CC(C)(CS(=O)(=O)N1CCc2ccc(Br)cc2C1)N(O)C=O [Example 56, N-{2-[(7-bromo-3,4-dihydroisoquinolin-2(1H)-yl)sulfonyl]-1,1-dimethylethyl}-N-hydroxyformamide]
16 | > 5 | 0.083 |  | 32 | O=CN(O)C(COCc1ccccc1)CS(=O)(=O)N1CCc2ccc(C(F)(F)F)cc2C1 (centres unmarked) [Example 59, N-[2-(benzyloxy)-1-({[7-(trifluoromethyl)-3,4-dihydro-isoquinolin-2(1H)-yl]sulfonyl}methyl)ethyl]-N-hydroxyformamide]
17 | 0.079 | 0.411 |  | 0 | O=CN(O)C(CS(=O)(=O)N1CCc2ccc(F)cc2C1)C1CCCC1 (centres unmarked) [Example 60, N-{1-cyclopentyl-2-[(7-fluoro-3,4-dihydroisoquinolin-2(1H)-yl)sulfonyl]ethyl}-N-hydroxyformamide]
18 | > 5 | > 5 |  | 7 | CCCCCC(C)(C)C(CS(=O)(=O)N1CCc2cc(C(F)(F)F)ccc2C1)N(O)C=O (centres unmarked) [Example 63, N-[2,2-dimethyl-1-({[6-(trifluoromethyl)-3,4-dihydro-isoquinolin-2(1H)-yl]sulfonyl}methyl)heptyl]-N-hydroxyformamide]
19 | 0.49 | 0.277 |  | 13 | CC(C)(C)C(CS(=O)(=O)N1CCc2ccc(Cl)cc2C1)N(O)C=O (centres unmarked) [Example 65, N-(1-{[(7-chloro-3,4-dihydroisoquinolin-2(1H)-yl)sulfonyl]methyl}-2,2-dimethylpropyl)-N-hydroxyformamide]
20 | 0.268 | 0.221 |  | 31 | O=CN(O)C(CS(=O)(=O)N1CCc2ccc(-c3ccsc3)cc2C1)C1CCCC1 (centres unmarked) [Example 68, N-(1-cyclopentyl-2-{[7-(3-thienyl)-3,4-dihydroisoquinolin-2(1H)-yl]sulfonyl}ethyl)-N-hydroxyformamide]
